Experiments:
in vitro [1] = conditions: mouse, hepatocytes
[2] = Metabolic stability in mouse liver microsomes assessed as parent compound remaining measured after 60 mins; type: ADME, Microsome
in vivo [3] = conditions: CD1, mouse, iv, 3 mg/kg
in vivo [4] = conditions: CD1, mouse, iv, 3 mg/kg; remark: listed apart in the source
[5] = mouse, microsomes
in vivo [6] = conditions: CD1, mouse, po, 10 mg/kg
in vivo [7] = conditions: CD1, mouse, po, 10 mg/kg; remark: listed apart in the source
in vitro [8] = conditions: mouse, liver microsomes

SMILES | half-life (in vitro [1]) [h] | Stability ([2]; microsomes, 1 h) [%] | half-life (in vivo [3]) [h] | clearance (in vivo [4]) [mL/min/kg] | t1/2 [5] [h] | bioavailability (in vivo [6]) [%] | AUC(0-inf) (in vivo [7]) [ng·h/mL] | remaining at 1 h ([2]; liver microsomes, read-out: Stability) [%] | half-life (in vitro [8]) [h]
COc1cc(N2CCN(C)CC2)ccc1Nc1ncc2c(n1)N(C)c1ccccc1C(=O)N2 | 5.78 | 2 | 0.7 | 150 | 0.467 | 5 | 56 | – | –
COc1cc(N2CCN(C)CC2)ccc1Nc1ncc2c(n1)N(C)c1ccccc1C(=O)N2C | > 8.33 | – | 4.4 | 25 | – | 46 | 2000 | 40 | 0.367
COc1cc2c(cc1Nc1ccc(Nc3ncc4c(n3)N(C)c3ccccc3C(=O)N4)cc1)CCN(C)C2 | – | – | 10 | 120 | – | 7 | 125 | – | –

Source: ChEMBL document CHEMBL4610057, “Benzopyrimidodiazepinone inhibitors of TNK2” (Bioorg Med Chem Lett, 2020)
